Experiments:
G13D = G13D (Homo sapiens, UniProt P01116, G13D); test: Guanine nucleotide exchange (GNE) assay, G13D; type: biochemical
Description: (§1) The TR-FRET signal is measured on an Envision (PerkinElmer) plate reader: Excitation filter=340 nm; emission 1=495 nm; emission 2=520 nm; dichroic mirror=D400/D505; delay time=100 ms. The signal of each well is determined as the ratio of the emission at 520 nm to that at 495 nm. […] The apparent effect as a function of compound concentration is fit to a four-parameter logistic equation to calculate IC50 values using Spotfire software.

[1] = tested on: AsPC-1 cells containing homozygous KRAS-G12D activating mutation (p-ERK); details: Homo sapiens, ASPC1, 2 h, read-out: KRAS G12D ASPC-1 IC50 (nM)
Description: Procedure for Cellular Phospho-ERK Assay, G12D
AsPC-1 cells (ATCC® CRL-1682™), containing homozygous KRAS-G12D activating mutation, were cultured in T150 flask in growth medium (RPMI medium 1640-GlutaMAX™—I (ThermoFisher Scientific 61870) containing 10% fetal bovine serum (ThermoFisher Scientific 10091148)). The cells were harvested in growth medium after TrypLE (ThermoFisher scientific 12604021) digestion and were seeded in a 384-well collagen coated cell culture plate (Corning 356702) at a density of 15,000 cells/well, and incubated at 37° C., 5% CO2 overnight. […] RPMI medium 1640-GlutaMAX™—I was added to the intermediate plate and the contents of the intermediate plate were then transferred to the 384-well collagen coated cell culture plate, which was incubated at 37° C., 5% CO2 for 2 hours. After removal of medium from the collagen coated cell culture plate, cells were lysed in lysis buffer from Alpha SureFire® Ultra™ Multiplex p-ERK and total ERK assay kit (PerkinElmer MPSU-PTERK) containing Halt™ Protease and Phosphatase inhibitor cocktail (ThermoFisher Scientific 78446) at room temperature with constant shaking at 300 rpm for 30 minutes. The cell lysates were then transferred to an OptiPlate-384 plate (PerkinElmer 6005620), and the phosphorylation of ERK (p-ERK) and total ERK levels were detected by Alpha SureFire® Ultra™ Multiplex p-ERK kit and total ERK assay kit (PerkinElmer MPSU-PTERK) following the manufacturer's protocol. Assay plates were read on a EnVision Multimode Plate Reader (PerkinElmer), and the ratio of p-ERK vs. total ERK in each well was used as the final readout. Dose response curves were analyzed using a 4-parameter logistic model to calculate IC50 values using Spotfire software.
NRAS (SEQ ID NO: 5) = NRAS (SEQ ID NO: 5) (Homo sapiens, UniProt P01111); test: SOS-catalyzed guanine nucleotide exchange (GNE) assay, NRAS
Description: (§2) Specifically, the SOS-catalyzed nucleotide exchange assay utilizes a preformed time-resolved fluorescence resonance energy transfer (TR-FRET) complex containing a specific biotinylated RAS protein (KRAS-G12C/V/D, HRAS, NRAS; described above) with BODIPY-GDP, and Terbium-streptavidin. Test compounds are preincubated with this complex for 60 minutes.
(§3) To assemble the preformed TR-FRET complexes, each biotinylated RAS protein is diluted to 2 μM in an EDTA Buffer (20 mM HEPES, 50 mM sodium chloride, 10 mM EDTA, and 0.01% Tween) and incubated at room temperature for one hour. This mixture is then further diluted to 90 nM in an Assay Buffer (20 mM HEPES, 150 mM sodium chloride, 10 mM magnesium chloride, and 0.005% Tween) containing 15 nM of Terbium-Streptavidin (Invitrogen, catalog #PV3577) and 900 nM of BODIPY-GDP (Invitrogen, catalog #G22360) and incubated at room temperature for six hours. It should be noted that this preformed TR-FRET complex for each of the RAS proteins was made ahead of time, aliquoted and stored at −80° C. until the day of the experiment.
(§4) Once titrations are made, 10 nL of the diluted compounds is acoustically dispensed into a 384-well assay plate (Corning, catalog #3820) using an Echo 550 (Labcyte). Each well of the assay plate subsequently receives 3 μL of a specific 3× RAS preformed TR-FRET complex and 3 μL of Assay Buffer and is incubated at room temperature for 60 minutes (preincubation time). […] The final reaction in each well of 9 μL consists of 3 mM GTP, and the specific RAS and SOS proteins in the following concentrations: KRAS-G12C/SOS=3 nM/40 nM, KRAS-G12D/SOS=1 nM/40 nM, KRAS-G12V/SOS=1.25 nM/160 nM, HRAS/SOS=1.25 nM/40 nM, and NRAS/SOS=1.25 nM/40 nM.
as §1

[2] = biological target: Recombinant KRAS-G12D (SEQ ID NO: 2) (Homo sapiens, UniProt P01116, G12D); test: SOS-catalyzed guanine nucleotide exchange (GNE) assay, KRAS-G12D
Recombinant KRAS-G12D (SEQ ID NO: 2), sequence (P01116 with tags, fused parts or gaps isoform P01116-2 G12D): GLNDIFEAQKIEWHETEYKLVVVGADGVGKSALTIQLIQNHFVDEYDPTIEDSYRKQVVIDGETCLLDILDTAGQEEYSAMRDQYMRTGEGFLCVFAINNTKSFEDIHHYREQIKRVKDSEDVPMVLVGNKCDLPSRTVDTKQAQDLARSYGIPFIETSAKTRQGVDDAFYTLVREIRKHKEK
Description: as §2, §3, §4, §1

[3] = tested on: NCI-H358 cells containing homozygous KRAS-G12C activating mutation (p-ERK); details: Homo sapiens, NCI-H358, 2 h, read-out: G12C H358 IC50 (nM)
Description: Procedure for Cellular Phospho-ERK Assay, G12C
NCI-H358 cells (ATCC® CRL-5807™), containing homozygous KRAS-G12C activating mutation, were cultured in T150 flask in growth medium (RPMI medium 1640-GlutaMAX™—I (ThermoFisher Scientific 61870) containing 10% fetal bovine serum (ThermoFisher Scientific 10091148)). The cells were harvested in growth medium after TrypLE (ThermoFisher scientific 12604021) digestion and were seeded in a 384-well collagen coated cell culture plate (Corning 356702) at a density of 15,000 cells/well, and incubated at 37° C., 5% CO2 overnight. […] RPMI medium 1640-GlutaMAX™—I was added to the intermediate plate and the contents of the intermediate plate were then transferred to the 384-well collagen coated cell culture plate, which was incubated at 37° C., 5% CO2 for 2 hours. After removal of medium from the collagen coated cell culture plate, cells were lysed in lysis buffer from Alpha SureFire® Ultra™ Multiplex p-ERK and total ERK assay kit (PerkinElmer MPSU-PTERK) containing Halt™ Protease and Phosphatase inhibitor cocktail (ThermoFisher Scientific 78446) at room temperature with constant shaking at 300 rpm for 30 minutes. The cell lysates were then transferred to an OptiPlate-384 plate (PerkinElmer 6005620), and the phosphorylation of ERK (p-ERK) and total ERK levels were detected by Alpha SureFire® Ultra™ Multiplex p-ERK kit and total ERK assay kit (PerkinElmer MPSU-PTERK) following the manufacturer's protocol. Assay plates were read on an EnVision Multimode Plate Reader (PerkinElmer), and the ratio of p-ERK vs. total ERK in each well was used as the final readout. Dose response curves were analyzed using a 4-parameter logistic model to calculate IC50 values using Spotfire software.
HRAS (SEQ ID NO: 4) = HRAS (SEQ ID NO: 4) (Homo sapiens, UniProt P01112); test: SOS-catalyzed guanine nucleotide exchange (GNE) assay, HRAS
HRAS (SEQ ID NO: 4), sequence (P01112 with tags, fused parts or gaps): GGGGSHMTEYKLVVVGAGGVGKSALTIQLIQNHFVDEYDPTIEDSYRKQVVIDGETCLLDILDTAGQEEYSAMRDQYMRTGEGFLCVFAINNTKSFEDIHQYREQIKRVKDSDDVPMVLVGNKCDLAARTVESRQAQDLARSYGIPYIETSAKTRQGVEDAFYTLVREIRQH
Description: as §2, §3, §4, §1

[4] = biological target: Recombinant KRAS-G12V (SEQ ID NO: 3) (Homo sapiens, UniProt P01116, G12V); test: SOS-catalyzed guanine nucleotide exchange (GNE) assay, KRAS-G12V
Recombinant KRAS-G12V (SEQ ID NO: 3), sequence (P01116 with tags, fused parts or gaps isoform P01116-2 G12V): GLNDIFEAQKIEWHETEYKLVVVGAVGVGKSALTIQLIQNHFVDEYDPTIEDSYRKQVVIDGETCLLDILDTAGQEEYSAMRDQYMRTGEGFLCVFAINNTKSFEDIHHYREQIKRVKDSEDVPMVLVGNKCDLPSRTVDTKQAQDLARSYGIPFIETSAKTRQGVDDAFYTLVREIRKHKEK
Description: as §2, §3, §4, §1

G13D, sequence (P01116 1-188 isoform P01116-2 G13D): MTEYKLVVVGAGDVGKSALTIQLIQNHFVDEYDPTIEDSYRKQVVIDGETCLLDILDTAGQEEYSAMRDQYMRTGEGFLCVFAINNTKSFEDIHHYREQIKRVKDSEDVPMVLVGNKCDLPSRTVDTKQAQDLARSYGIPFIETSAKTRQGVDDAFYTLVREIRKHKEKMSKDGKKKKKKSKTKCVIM
NRAS (SEQ ID NO: 5), sequence (P01111 with tags, fused parts or gaps): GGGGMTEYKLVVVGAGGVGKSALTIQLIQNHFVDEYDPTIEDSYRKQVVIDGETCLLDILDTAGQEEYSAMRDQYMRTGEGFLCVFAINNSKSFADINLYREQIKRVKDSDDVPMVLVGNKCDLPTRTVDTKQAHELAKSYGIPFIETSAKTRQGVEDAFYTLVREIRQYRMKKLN

Row | Compound | IC50 (G13D) [nM] | IC50 [1] [nM] | IC50 (NRAS (SEQ ID NO: 5)) [nM] | IC50 [2] [nM] | IC50 [3] [nM] | IC50 (HRAS (SEQ ID NO: 4)) [nM] | IC50 [4] [nM]
1 | Cc1cc(N)nc(-c2c(Cl)cc3c(N4CCCC(C)(O)C4)nc(OC[C@@]45CCCN4C[C@H](F)C5)nc3c2F)c1C(F)(F)F (single isomer, unassigned) [Ex-26] | 711 | 3920 |  | 2010 | 7730 |  | 1550
2 | CN(C)CC1(COc2nc(N3CCCC(C)(O)C3)c3cc(F)c(-c4cc(O)ccc4OC(F)(F)F)c(F)c3n2)CC1 (stereo not drawn) [Ex-9, 1-(2-((1-((dimethylamino)methyl)cyclopropyl)methoxy)-6,8-difluoro-7-(5-hydroxy-2-(trifluoromethoxy)phenyl)quinazolin-4-yl)-3-methylpiperidin-3-ol] | 221 | 1880 |  | 315 | 4210 |  | 381
3 | Oc1cc(-c2c(F)cc3c(N4CCCCC(O)C4)nc(OC[C@@]45CCCN4C[C@H](F)C5)nc3c2F)c2c(Cl)cccc2c1 (stereo partly drawn) [Ex-34, 1-(7-(8-chloro-3-hydroxynaphthalen-1-yl)-6,8-difluoro-2-(((2R,7aS)-2-fluorotetrahydro-1H-pyrrolizin-7a(5H)-yl)methoxy)quinazolin-4-yl)azepan-3-ol] | 441 | 6300 |  | 285 | 3620 |  | 589
4 | C#Cc1cccc2cc(O)cc(-c3ncc4c(N5CCC[C@@](C)(O)C5)nc(OCC56CCCN5CCC6)nc4c3F)c12 [Ex-22, (R)-1-(7-(8-ethyny1-3-hydroxynaphthalen-1-yl)-8-fluoro-2-((tetrahydro-1H-pyrrolizin-7a(5H)-yl)methoxy)pyrido[4,3-d]pyrimidin-4-yl)-3-methylpiperidin-3-ol] | 1 | 1160 |  | 1 | 305 |  | 2
5 | C#Cc1cccc2cc(O)cc(-c3ncc4c(N5CCC[C@@](C)(O)C5)nc(OC[C@]5(CN(C)C)CC5(F)F)nc4c3F)c12 [Ex-24, (R)-1-(2-(((R)-1-((dimethylamino)meth-yl)-2,2-difluorocyclopropyl)methoxy)-7-(8-ethynyl-3-hydroxynaphthalen-1-yl)-8-fluoropyrido[4,3-d]pyrimidin-4-yl)-3-methylpiperidin-3-ol] | 1 | 20 |  | 1 | 2 |  | 1
6 | CN(C)CC1(COc2nc(N3CCCC(O)CC3)c3cc(Cl)c(-c4ccc(F)c5sc(N)nc45)c(F)c3n2)CC1 (stereo not drawn) [Ex-17, 1-(7-(2-amino-7-fluorobenzo[d]thiazol-4-yl)-6-chloro-2-((1-((dimethylamino)methyl)cyclopropyl)methoxy)-8-fluoroquinazolin-4-yl)azepan-4-ol] | 341 |  | > 9950 | 283 |  | > 9950 | 237
7 | Cc1cc2[nH]ncc2c(-c2c(F)cc3c(N4CCC[C@H](O)CC4)nc(OC[C@@]45CCCN4C[C@H](F)C5)nc3c2F)c1C(F)(F)F [Ex-40, (4S)-1-(6,8-difluoro-2-(((2R,7aS)-2-fluorotetrahydro-1H-pyrrolizin-7a(5H)-yl)methoxy)-7-(6-methyl-5-(trifluoromethyl)-1H-indazol-4-yl)quinazolin-4-yl)azepan-4-ol] | 931 | 1330 |  | 173 | 981 |  | 470
8 | CN(C)CC1(COc2nc(N3CCCC(C)(O)C3)c3cc(F)c(-c4cc(O)cc5ccccc45)c(F)c3n2)CC1 (stereo not drawn) [Ex-8, 1-(2-((1-((dimethylamino)methyl)cyclopropyl)methoxy)-6,8-difluoro-7-(3-hydroxynaphthalen-1-yl)quinazolin-4-yl)-3-methylpiperidin-3-ol] |  |  | > 9950 |  |  | > 9950 | 
9 | CC1(O)CN(c2nc(OC[C@@]34CCCN3C[C@H](F)C4)nc3c(F)c(-c4cc(O)cc5cccc(Cl)c45)c(F)cc23)CCC1F (stereo partly drawn) [Ex-32, 1-(7-(8-chloro-3-hydroxynaphthalen-1-yl)-6,8-difluoro-2-(((2R,7aS)-2-fluorotetrahydro-1H-pyrrolizin-7a(5H)-yl)methoxy)quinazolin-4-yl)-4-fluoro-3-methylpiperidin-3-ol] | 16 | 261 |  | 59 | 118 |  | 40

The next lines start with the values.

Row | IC50 (G13D) [nM] | IC50 [1] [nM] | IC50 (NRAS (SEQ ID NO: 5)) [nM] | IC50 [2] [nM] | IC50 [3] [nM] | IC50 (HRAS (SEQ ID NO: 4)) [nM] | IC50 [4] [nM] | Compound
10 | 4 | 91 | > 10000 | 3 | 58 | > 10000 | 3 | C#Cc1cccc2cc(O)cc(-c3c(F)cc4c(N5CCC[C@@](C)(O)C5)nc(OC[C@@]56CCCN5C[C@H](F)C6)nc4c3F)c12 [Ex-42, (3R)-1-(7-(8-ethynyl-3-hydroxvnaphthalen-1-yl)-6,8-difluoro-2-(((2R,7aS)-2-fluorotetrahydro-1H-pyrrolizin-7a(5H)-yl)methoxy)quinazolin-4-yl)-3-methylpiperidin-3-ol]
11 | 189 | 1730 |  | 984 | 468 |  | 358 | CC1(O)CN(c2nc(OC[C@@]34CCCN3C[C@H](F)C4)nc3c(F)c(-c4cc(O)cc5cccc(Cl)c45)c(F)cc23)CCC1(F)F (stereo partly drawn) [Ex-31, 1-(7-(8-chloro-3-hydroxynaphthalen-1-yl)-6,8-difluoro-2-(((2R,7aS)-2-fluorotetrahydro-1H-pyrrolizin-7a(5H)-yl)methoxy)quinazolin-4-yl)-4,4-difluoro-3-methylpiperidin-3-ol]
12 | 173 | 2070 |  | 239 | 979 |  | 390 | C#Cc1c(F)ccc2cccc(-c3c(F)cc4c(N5CCC[C@@](C)(O)C5)nc(OC[C@@]56CCCN5C[C@H](F)C6)nc4c3F)c12 [Ex-47, (3R)-1-(7-(8-ethynyl-7-fluoronaphthalen-1-yl)-6,8-difluoro-2-(((2R,7aS)-2-fluorotetrahydro-1H-pyrrolizin-7a(5H)-yl)methoxy)quinazolin-4-yl)-3-methylpiperidin-3-ol]
13 | 2 | 65 |  | 1 | 14 |  | 1 | C#Cc1cccc2cc(O)cc(-c3ncc4c(N5CCC[C@@](C)(O)C5)nc(OC[C@@]56CCCN5C[C@H](F)C6)nc4c3F)c12 [Ex-23, (R)-1-(7-(8-ethynyl-3-hydroxynaphthalen-1-yl)-8-fluoro-2-(((2R,7aS)-2-fluorotetrahydro-1H-pyrrolizin-7a(5H)-yl)methoxy)pyrido[4,3-d]pyrimidin-4-yl)-3-methylpiperidin-3-ol]
14 |  | 70 | > 9950 |  | 41 | > 9950 |  | C#Cc1cccc2cc(O)cc(-c3c(Cl)cc4c(N5CCC[C@@](C)(O)C5)nc(OC[C@@]56CCCN5C[C@H](F)C6)nc4c3F)c12 [Ex-1, (3R)-1-(6-chloro-7-(8-ethynyl-3-hydroxvnaphthalen-1-yl)-8-fluoro-2-(((2R,7aS)-2-fluorotetrahydro-1H-pyrrolizin-7a(5H)-yl)methoxy)quinazolin-4-yl)-3-methylpiperidin-3-ol]
15 | 7 | 376 |  | 13 | 180 |  | 5 | C#Cc1cccc2cc(O)cc(-c3c(F)cc4c(N5CCCC(O)(CO)C5)nc(OC[C@@]56CCCN5C[C@H](F)C6)nc4c3F)c12 (stereo partly drawn) [Ex-48, 1-(7-(8-ethynyl-3-hy-droxynaphthalen-1-yl)-6,8-difluoro-2-(((2R,7aS)-2-fluorotetrahydro-1H-pyrrolizin-7a(5H)-yl)methoxy)quinazolin-4-yl)-3-(hydroxymethyl)piperidin-3-ol]
16 | 777 | 6860 |  | 857 | 2170 |  | 598 | Oc1cc(-c2c(F)cc3c(N4CCCC(O)(C(F)(F)F)C4)nc(OC[C@@]45CCCN4C[C@H](F)C5)nc3c2F)c2c(Cl)cccc2c1 (single isomer, unassigned) [Ex-38]
17 | 13 | 900 |  | 15 | > 30000 |  | 17 | CC1(O)CCCN(c2nc(OC[C@@]34CCCN3C[C@H](F)C4)nc3c(F)c(-c4cc(O)cc5cccc(Cl)c45)c(F)cc23)C1 (stereo partly drawn) [Ex-29, 1-(7-(8-chloro-3-hydroxynaphthalen-1-yl)-6,8-difluoro-2-(((2R,7aS)-2-fluorotetrahydro-1H-pyrrolizin-7a(5H)-yl)methoxy)quinazolin-4-yl)-3-methylpiperidin-3-ol]
18 | 142 | 1860 |  | 398 | 3580 |  | 300 | CC1(O)CCCCN(c2nc(OC[C@@]34CCCN3C[C@H](F)C4)nc3c(F)c(-c4cc(O)cc5cccc(Cl)c45)c(F)cc23)C1 (single isomer, unassigned) [Ex-36]
19 | 8 | 215 |  | 13 | 58 |  | 10 | C#Cc1cccc2cc(O)cc(-c3c(F)cc4c(N5CCCC(O)(C(F)F)C5)nc(OC[C@@]56CCCN5C[C@H](F)C6)nc4c3F)c12 (stereo partly drawn) [Ex-43, 3-(difluoromethyl)-1-(7-(8-ethynyl-3-hydroxynaphthalen-1-yl)-6,8-difluoro-2-(((2R,7aS)-2-fluorotetrahydro-1H-pyrrolizin-7a(5H)-yl)methoxy)quinazolin-4-yl)piperidin-3-ol]
